The values that follow come from patent US20070021509A1, “Phosphate transport inhibitors” (priority 2001, published 2007).

Molecules are shown by their SMILES.

The term IC50 denotes the point on the concentration scale where inhibition reaches its midpoint.

One assay relates to phosphate uptake by rabbit intestinal Brush Border Membrane Vesicles (BBMV). The assay is described as follows: 33PO4 uptake in rabbit intestinal BBMV (HTS), phosphate transporter inhibition in vitro. It counts as biochemical. The conditions noted are these: Table 2, phosphate uptake, read-out: IC50. The procedure: The following example outlines the procedures required for in vitro measurement of the inhibition of phosphate uptake by rabbit intestinal Brush Border Membrane Vesicles (BBMV).
Rabbit Intestinal Brush Border Membrane Vesicles (BBMV) were isolated from mucosal scrapings of the upper small intestine (duodenum) of male New Zealand White rabbits. The scrapings were divided into 2 g aliquots in cryopreservation vials, frozen in liquid nitrogen, and stored at −80° C.
The following procedure was performed for each 2 g sample of BBMV mucosal scraping. Buffer volumes and container sizes were adjusted appropriately for the number of 2 g samples used. The entire preparation was performed on ice, unless otherwise stated.
Mucosal scrapings (2 g per tube) were thawed in a 37° C. water bath for 3 minutes and then placed on ice. The scrapings were suspended with a total of 7.5 ml of 300 MET, and transferred to a 250 mL Corning tube on ice. To the suspension was added 30 mL cold (4° C.) deionized water (dH20). The suspension was homogenized with a tissue homogenizer (Polytron) on high speed for 2 minutes. A stir bar and MgCl2 (81.3 mg) was added. The suspension was mixed well by inverting the closed tube. The suspension was stirred on ice, ensuring that a good vortex is achieved with the stir bar, for 40 minutes. The suspension was transferred to a chilled centrifuge tube and spun at 4000×g for 15 minutes. The supernatant was transferred to a new chilled centrifuge tube and spun at 32000×g for 30 minutes. The supernatant was discarded and the pellet was re-suspended with 34 mL cold 60 MET. The suspension was homogenized with a Dounce homogenizer with 8 strokes. The suspension was transferred to a fresh 250 mL Corning tube. A stir bar and 69.1 mg MgCl2 were added. The suspension was stirred well on ice for 10 minutes. The suspension was transferred to a chilled centrifuge tube and spun at 4000×g for 15 minutes. The supernatant was transferred to a new chilled centrifuge tube and spun at 32000×g for 30 minutes. The supernatant was discarded. At this stage, the preparation could be continued or this pellet (P4) could be frozen in liquid nitrogen and stored at −80° C. When needed, this pellet could be allowed to thaw at room temperature for 5 minutes. Continuing the preparation, the pellet was re-suspended with 34 mL cold 280 MH. The suspension was homogenized in a Dounce homogenize with 8 strokes. The suspension was transferred to a new chilled centrifuge tube and spun at 32000×g for 30 minutes. The supernatant was discarded. To the pellet was added 500 μL 280 MH and the pellet was re-suspended very carefully with a 1 mL tuberculin syringe with a 25-gauge needle with care not to create bubbles. Once the entire pellet was suspended, the suspension was transferred to a chilled 1.5 mL microfuge tube. The suspension was evenly dispersed by bringing the suspension up into the syringe through the 25-gauge needle, and back out again 8 times with care not to create bubbles. The total protein concentration was determined by performing a Bradford Protein Assay. Using that value, the BBMV were diluted with 280 MH to reach approximately 0.5-2.0 mg/mL. The solution was used as soon as possible for uptake studies.
The following experiment was performed using a Beckman Multimek 96-tip robotic pipettor. The following outlines the preparation required to screen one 96-well plate of compounds. However, multiple plates could be screened in one experiment.
To the “Uptake Buffers” was added ^33PO4 to reach 200,000 CPM/19 μL. The buffer solutions were stored at room temperature. The following control solutions were prepared and placed into appropriate wells of a polypropylene, 96-well V-bottom plate (“Hot Stock Plate”):
a. Maximum activity (MAX)−Na Uptake buffer+^33PO4 at 200,000 CPM/19 μL
b. Midline activity (MID)−MAX+100 μM KH2PO4, pH 7.4
c. Minimum activity (MIN)− K Uptake buffer+^33PO4 at 200,000 CPM/19 μL
As for `O=C(Nc1cccc(Cl)c1)c1cc(Br)ccc1NS(=O)(=O)c1ccc(Cl)cc1` [Compound 95], the IC50 is more than 1500 µM.
The same measure, in the same setting: to `O=C(c1ccc(Cl)cc1)c1cc(NC(=O)c2cc(Br)ccc2NS(=O)(=O)c2ccc(Cl)cc2)ccc1Cl` [Compound 96] belongs more than 1500 µM; to `O=C(Nc1ccc(Cl)cc1)c1cc(Br)ccc1NS(=O)(=O)c1ccc(Cl)cc1` [Compound 97], more than 1500 µM; to `COc1ccc(S(=O)(=O)Nc2ccc(Br)cc2C(=O)Nc2cc(Cl)ccc2Cl)cc1[N+](=O)[O-]` [Compound 98], 51 to 100 µM.
On the same count and under the same terms, to `COc1ccc(S(=O)(=O)Nc2ccc(Br)cc2C(=O)Nc2ccccc2Cl)cc1[N+](=O)[O-]` [Compound 99] belongs 51 to 100 µM; to `COc1ccc(S(=O)(=O)Nc2ccc(Br)cc2C(=O)Nc2cccc(Cl)c2C)cc1[N+](=O)[O-]` [Compound 100], 51 to 100 µM.
On the same count and under the same terms, to `COc1ccc(S(=O)(=O)Nc2ccc(Br)cc2C(=O)Nc2cccc(Cl)c2)cc1[N+](=O)[O-]` [Compound 101] belongs 51 to 100 µM.
For the compound `COc1ccc(S(=O)(=O)Nc2ccc(Br)cc2C(=O)Nc2ccccc2F)cc1[N+](=O)[O-]` [Compound 102], the IC50 was 51 to 100 µM.
Still for that read-out and setting: to `COc1ccc(S(=O)(=O)Nc2ccc(Br)cc2C(=O)Nc2cccc(Br)c2)cc1[N+](=O)[O-]` [Compound 103] belongs 51 to 100 µM; to `COc1ccc(S(=O)(=O)Nc2ccc(Br)cc2C(=O)Nc2ccc(Cl)cc2Cl)cc1[N+](=O)[O-]` [Compound 104], 51 to 100 µM; to `COc1ccc(S(=O)(=O)Nc2ccc(Br)cc2C(=O)Nc2ccccc2Br)cc1[N+](=O)[O-]` [Compound 105], 51 to 100 µM.
Turning to `COc1ccccc1NC(=O)c1cc(Br)ccc1NS(=O)(=O)c1ccc(OC)c([N+](=O)[O-])c1` [Compound 106], the IC50 was 101 to 500 µM.
The same measure, in the same setting: as for `COc1ccc(S(=O)(=O)Nc2ccc(Br)cc2C(=O)Nc2ccccc2C(=O)O)cc1[N+](=O)[O-]` [Compound 107], the figure is 101 to 500 µM; as for `COc1ccc(S(=O)(=O)Nc2ccc(Br)cc2C(=O)Nc2ccccc2C)cc1[N+](=O)[O-]` [Compound 108], 101 to 500 µM.
Still for that read-out and setting: to `O=C(Nc1ccc(Cl)c(Cl)c1)c1cc(Br)ccc1NS(=O)(=O)c1ccc(Cl)c([N+](=O)[O-])c1` [Compound 110] belongs less than 50 µM; to `O=C(Nc1cc(Cl)ccc1Cl)c1cc(Br)ccc1NS(=O)(=O)c1ccc(Cl)c([N+](=O)[O-])c1` [Compound 111], less than 50 µM.
With `O=C(Nc1cc(Cl)ccc1Cl)c1cc(Br)ccc1NS(=O)(=O)c1ccc(Cl)c([N+](=O)[O-])c1` [Compound 112], the IC50 was less than 50 µM.
Same read-out and setting: as for `O=C(Nc1ccc(Cl)c(Cl)c1)c1cc(Br)ccc1NS(=O)(=O)c1ccc(Cl)c([N+](=O)[O-])c1` [Compound 113], the figure is 51 to 100 µM; as for `O=C(Nc1ccccc1Br)c1cc(Br)ccc1NS(=O)(=O)c1ccc(Cl)c([N+](=O)[O-])c1` [Compound 114], 51 to 100 µM; as for `O=C(Nc1cc(Cl)ccc1Cl)c1cc(Br)ccc1NS(=O)(=O)c1ccc(Cl)c([N+](=O)[O-])c1` [Compound 115], 51 to 100 µM.
The same measure, in the same setting: to `O=C(Nc1cccc(Br)c1)c1cc(Br)ccc1NS(=O)(=O)c1ccc(Cl)c([N+](=O)[O-])c1` [Compound 116] belongs 101 to 500 µM; to `COc1ccccc1NC(=O)c1cc(Br)ccc1NS(=O)(=O)c1ccc(Cl)c([N+](=O)[O-])c1` [Compound 117], 101 to 500 µM.
Still for that read-out and setting: to `O=C(Nc1ccccc1Cl)c1cc(Br)ccc1NS(=O)(=O)c1ccc(Cl)c([N+](=O)[O-])c1` [Compound 118] belongs 101 to 500 µM.
Take `NCCCCCCNC(=O)c1cc(Br)ccc1NS(=O)(=O)c1ccc(Cl)c([N+](=O)[O-])c1` [Compound 119]: the IC50 is 1000 to 1500 µM.
Still for that read-out and setting: to `O=C(Nc1ccc(Cl)cc1Cl)c1cc(Br)ccc1NS(=O)(=O)c1ccc(Cl)c([N+](=O)[O-])c1` [Compound 120] belongs more than 1500 µM.
`Cc1ccccc1NC(=O)c1cc(Br)ccc1NS(=O)(=O)c1ccc(Cl)c([N+](=O)[O-])c1` [Compound 121]: the IC50 is more than 1500 µM.
Same read-out and setting: as for `Cc1c(Cl)cccc1NC(=O)c1cc(Br)ccc1NS(=O)(=O)c1ccc(Cl)c([N+](=O)[O-])c1` [Compound 122], the figure is more than 1500 µM; as for `O=C(Nc1cccc(Cl)c1)c1cc(Br)ccc1NS(=O)(=O)c1ccc(Cl)c([N+](=O)[O-])c1` [Compound 123], more than 1500 µM.
Same read-out and setting: to `O=C(Nc1ccccc1F)c1cc(Br)ccc1NS(=O)(=O)c1ccc(Cl)c([N+](=O)[O-])c1` [Compound 124] belongs more than 1500 µM; to `O=C(Nc1ccc(Cl)c(Cl)c1)c1cc(Br)ccc1NS(=O)(=O)c1cccc([N+](=O)[O-])c1` [Compound 125], 101 to 500 µM.

Still in this assay, the particulars now being: Table 3, 100 μM compound.
Take `O=S(=O)(Nc1ccc(I)cc1F)c1ccc(OC(F)(F)F)cc1` [Compound 126]: the “% Inhib. At 100 μM” value is 103%.
Still for that read-out and setting: as for `O=S(=O)(Nc1cc(Cl)c(Cl)cc1Cl)c1cc(C(F)(F)F)cc(C(F)(F)F)c1` [Compound 127], the figure is 101%; as for `CSc1ccc(NS(=O)(=O)c2ccc(OC(F)(F)F)cc2)cc1` [Compound 128], 88%.
Take `O=S(=O)(Nc1ccc(Oc2ccccc2)cc1)c1ccc(OC(F)(F)F)cc1` [Compound 129]: the “% Inhib. At 100 μM” value is recorded as 84%.
Same read-out and setting: as for `CN(C)c1ccc(NS(=O)(=O)c2cc(C(F)(F)F)cc(C(F)(F)F)c2)cc1` [Compound 130], the figure is 81%; as for `O=S(=O)(Nc1ccc(C(F)(F)F)cc1)c1ccc(NS(=O)(=O)c2ccc(C(F)(F)F)cc2)cc1` [Compound 131], 80%.
On the same count and under the same terms, to `O=S(=O)(Nc1cccc(Cl)c1)c1ccc(OC(F)(F)F)cc1` [Compound 132] belongs 79%.
`O=S(=O)(NCc1ccccc1Cl)c1ccc(OC(F)(F)F)cc1` [Compound 133]: the “% Inhib. At 100 μM” value turned out to be 77%.
For the compound `O=S(=O)(Nc1ccccc1-n1cccc1)c1ccc(OC(F)(F)F)cc1` [Compound 134], the “% Inhib. At 100 μM” value came to 76%.
Same read-out and setting: to `O=S(=O)(c1ccccc1)n1ccc2ccccc21` [Compound 135] belongs 76%; to `Nc1cc(Br)ccc1N(c1ccc(OC(F)(F)F)cc1)S(=O)(=O)c1ccc(OC(F)(F)F)cc1` [Compound 136], 76%.
Still for that read-out and setting: as for `CCOC(=O)c1cc2cccc(NS(=O)(=O)c3ccc(OC(F)(F)F)cc3)c2[nH]1` [Compound 137], the figure is 74%; as for `CC(C)(C)c1ccc(NS(=O)(=O)c2ccc(OC(F)(F)F)cc2)cc1` [Compound 138], 71%.
The same measure, in the same setting: as for `O=S(=O)(c1ccc(Cl)cc1)N1CCCc2ccccc21` [Compound 139], the figure is 70%.
`O=S(=O)(c1ccc(Cl)cc1)N1CCc2ccccc21` [Compound 140]: the “% Inhib. At 100 μM” value was determined as 69%.
The same measure, in the same setting: as for `Cc1ccc2c(c1)CCCN2S(=O)(=O)c1ccc(C(C)(C)C)cc1` [Compound 141], the figure is 68%.
Still for that read-out and setting: to `Cc1ccc(NS(=O)(=O)c2ccc(OC(F)(F)F)cc2)cc1` [Compound 142] belongs 67%; to `O=S(=O)(c1ccccc1)n1nnc2ccccc21` [Compound 143], 64%; to `Cc1cc(C)c(S(=O)(=O)n2cc(/C=C/C(=O)O)c3ccccc32)c(C)c1` [Compound 144], 64%.
As for `O=S(=O)(Nc1cc(C(F)(F)F)c(Cl)cc1Cl)c1cc(C(F)(F)F)cc(C(F)(F)F)c1` [Compound 146], the “% Inhib. At 100 μM” value is listed as 62%.
For `O=[N+]([O-])c1cc(Br)ccc1NS(=O)(=O)c1ccc(OC(F)(F)F)cc1` [Compound 147], the “% Inhib. At 100 μM” value was 61%.
The same measure, in the same setting: as for `O=c1sc2ccccc2n1S(=O)(=O)c1ccccc1` [Compound 148], the figure is 60%.
